The text below walks through data of US9539260B2, “Dihydro-benzo-oxazine and dihydro-pyrido-oxazine derivatives” (Novartis AG, priority 2012, dated 2017).

One assay deals with PI3K delta (Homo sapiens (Human), UniProt O00329). Nature of the assay: Enzymatic PI3K delta isoform inhibition (lipid kinase activity, Kinase-Glo luminescence). As to conditions: Enzymatic assay. In kind it is biochemical. The gist of the method: (§1)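 IC50s derive from 4-parameter logistic fits of % inhibition across 8 concentrations (usually 10 to 0.003 μM). Lipid kinase reaction: PI3K (10 nM) plus phosphatidylinositol (5 μg/mL) started with 2 μM ATP, stopped near 50% ATP depletion; leftover ATP quantified by Kinase-Glo luminescence.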
Background: Kinase-Glo reads ATP consumption through a luciferase reaction.

The next assay deals with PI3K alpha (Homo sapiens (Human), UniProt P42336). Nature of the assay: Enzymatic PI3K alpha isoform inhibition (lipid kinase activity, Kinase-Glo luminescence). In kind it is biochemical. As to conditions: Enzymatic assay. In outline: as §1
PI3K alpha, sequence (P42336 other isoform, or with tags, fused parts or gaps): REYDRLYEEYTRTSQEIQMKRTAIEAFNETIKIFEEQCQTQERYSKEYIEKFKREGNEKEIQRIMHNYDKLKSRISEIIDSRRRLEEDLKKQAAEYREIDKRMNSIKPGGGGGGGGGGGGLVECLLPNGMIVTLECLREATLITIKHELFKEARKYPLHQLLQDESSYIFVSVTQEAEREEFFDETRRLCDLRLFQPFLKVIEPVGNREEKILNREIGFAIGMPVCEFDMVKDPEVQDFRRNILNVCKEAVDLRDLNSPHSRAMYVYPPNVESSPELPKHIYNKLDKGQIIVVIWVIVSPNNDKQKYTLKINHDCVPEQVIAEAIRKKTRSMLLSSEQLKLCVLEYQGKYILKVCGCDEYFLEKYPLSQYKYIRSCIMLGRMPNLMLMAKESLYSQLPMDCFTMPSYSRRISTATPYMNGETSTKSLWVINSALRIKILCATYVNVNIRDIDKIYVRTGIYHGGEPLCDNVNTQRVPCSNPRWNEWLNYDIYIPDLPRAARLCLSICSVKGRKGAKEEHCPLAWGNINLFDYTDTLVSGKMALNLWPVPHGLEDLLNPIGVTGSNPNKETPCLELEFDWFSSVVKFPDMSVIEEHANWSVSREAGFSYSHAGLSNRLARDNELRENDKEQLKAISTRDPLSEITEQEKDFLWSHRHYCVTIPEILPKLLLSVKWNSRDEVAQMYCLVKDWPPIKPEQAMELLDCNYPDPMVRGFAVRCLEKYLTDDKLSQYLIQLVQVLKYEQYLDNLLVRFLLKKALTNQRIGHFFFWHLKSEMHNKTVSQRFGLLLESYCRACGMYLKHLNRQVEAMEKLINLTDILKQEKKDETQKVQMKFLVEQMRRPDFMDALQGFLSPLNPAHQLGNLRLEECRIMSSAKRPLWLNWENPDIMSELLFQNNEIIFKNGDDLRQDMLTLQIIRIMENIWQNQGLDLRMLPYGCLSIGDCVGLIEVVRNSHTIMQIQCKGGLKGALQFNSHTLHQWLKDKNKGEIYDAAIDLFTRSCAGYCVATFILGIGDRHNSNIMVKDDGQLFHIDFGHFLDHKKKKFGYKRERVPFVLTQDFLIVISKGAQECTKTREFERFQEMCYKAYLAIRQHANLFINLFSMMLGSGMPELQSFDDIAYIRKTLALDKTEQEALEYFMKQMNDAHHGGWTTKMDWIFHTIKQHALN

PI3K delta, sequence (O00329 other isoform, or with tags, fused parts or gaps linker GGGGGG): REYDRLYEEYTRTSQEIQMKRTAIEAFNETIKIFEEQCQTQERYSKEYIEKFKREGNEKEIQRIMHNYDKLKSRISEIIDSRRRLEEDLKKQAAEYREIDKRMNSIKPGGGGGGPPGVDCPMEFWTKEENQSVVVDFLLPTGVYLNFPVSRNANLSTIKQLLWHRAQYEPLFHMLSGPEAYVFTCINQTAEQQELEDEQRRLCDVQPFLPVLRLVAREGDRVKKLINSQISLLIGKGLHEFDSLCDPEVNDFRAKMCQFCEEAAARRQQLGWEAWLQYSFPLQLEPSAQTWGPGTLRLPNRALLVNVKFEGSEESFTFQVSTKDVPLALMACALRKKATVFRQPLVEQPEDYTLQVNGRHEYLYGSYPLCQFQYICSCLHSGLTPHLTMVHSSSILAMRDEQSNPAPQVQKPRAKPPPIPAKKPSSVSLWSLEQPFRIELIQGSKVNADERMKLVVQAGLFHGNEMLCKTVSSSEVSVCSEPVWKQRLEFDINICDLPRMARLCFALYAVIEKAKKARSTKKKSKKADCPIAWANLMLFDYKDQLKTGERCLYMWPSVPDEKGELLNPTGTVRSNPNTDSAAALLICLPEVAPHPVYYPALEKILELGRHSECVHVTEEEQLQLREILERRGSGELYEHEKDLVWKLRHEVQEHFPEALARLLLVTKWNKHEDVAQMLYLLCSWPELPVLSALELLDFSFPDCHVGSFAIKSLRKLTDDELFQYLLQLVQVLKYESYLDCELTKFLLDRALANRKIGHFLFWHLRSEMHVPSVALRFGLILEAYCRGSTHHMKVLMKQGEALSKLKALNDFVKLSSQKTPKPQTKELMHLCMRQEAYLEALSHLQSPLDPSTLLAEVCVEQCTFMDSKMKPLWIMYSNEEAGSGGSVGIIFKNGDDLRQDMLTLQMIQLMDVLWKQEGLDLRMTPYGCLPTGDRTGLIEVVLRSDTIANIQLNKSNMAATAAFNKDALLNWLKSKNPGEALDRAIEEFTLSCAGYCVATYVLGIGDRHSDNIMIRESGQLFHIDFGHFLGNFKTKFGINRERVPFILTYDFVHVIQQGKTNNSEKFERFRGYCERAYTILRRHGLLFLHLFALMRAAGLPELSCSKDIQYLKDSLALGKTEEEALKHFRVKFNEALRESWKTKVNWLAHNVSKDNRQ

For `Cc1cc(N2CCOc3ccc(O[C@H]4CCN(C(=O)C5CCS(=O)(=O)CC5)C4)cc32)cnc1OC(F)F` [Example B73, {(S)-3-[4-(6-Difluoromethoxy-5-methyl-pyridin-3-yl)-3,4-dihydro-2H-benzo[1,4]oxazin-6-yloxy]-pyrrolidin-1-yl}-(1,1-dioxo-hexahydro-6-thiopyran-4-yl)-methanone], the IC50 on PI3K delta was 30 nM; on PI3K alpha it was 1770 nM.

For the molecule `CCC(=O)N1CC[C@H](Oc2ccc3c(c2)N(c2cnc(N)c(C(F)(F)F)c2)CCO3)C1` [Example A17, 1-{(S)-3-[4-(6-Amino-5-trifluoromethyl-pyridin-3-yl)-3,4-dihydro-2H-benzo[1,4]oxazin-6-yloxy]-pyrrolidin-1-yl}-propan-1-one], the IC50 at PI3K delta turned out to be 14 nM; on PI3K alpha it was 104 nM.

With `Cc1cc(N2CCOc3ccc(O[C@H]4CCN(C(=O)C5CCOCC5)C4)cc32)cnc1OC(F)F` [Example B72, {(S)-3-[4-(6-Difluoromethoxy-5-methyl-pyridin-3-yl)-3,4-dihydro-2H-benzo[1,4]oxazin-6-yloxy]-pyrrolidin-1-yl}-(tetrahydro-pyran-4-yl)-methanone], the IC50 is 32 nM against PI3K delta and 2060 nM against PI3K alpha.

Regarding `CCC(=O)N1CC[C@H](Oc2ccc3c(c2)N(c2ccc(OC)c(S(=O)(=O)N(C)OC)c2)CCO3)C1` [Example A29, 2,N-Dimethoxy-N-methyl-5-[6-((S)-1-propionyl-pyrrolidin-3-yloxy)-2,3-dihydro-benzo[1,4]oxazin-4-yl]-benzenesulfonamide], the results for the IC50 against PI3K delta and against PI3K alpha were 42 nM and 2730 nM, respectively.

Take `COc1ncc(N2CCOc3ccc(O[C@H]4CCN(C(=O)C5CCOC5)C4)cc32)cc1C#N` (single isomer, unassigned) [Example D29]: the IC50 on PI3K delta is 3 nM; on PI3K alpha, 534 nM.

In the case of `COc1ncc(N2CCOc3ccc(O[C@H]4CCN(C(=O)CCS(C)(=O)=O)C4)cc32)cc1F` [Example B112, 1-{(S)-3-[4-(5-Fluoro-6-methoxy-pyridin-3-yl)-3,4-dihydro-2H-benzo[1,4]oxazin-6-yloxy]-pyrrolidin-1-yl}-3-methanesulfonyl-propan-1-one], the results for the IC50 at PI3K delta and against PI3K alpha were 26 nM and 380 nM, respectively.

For the molecule `COc1cc(N2CCOc3ccc(O[C@H]4CCN(C(=O)c5ccc(=O)[nH]c5)C4)cc32)cnc1Cl` [Example B63, 5-{(S)-3-[4-(6-Chloro-5-methoxy-pyridin-3-yl)-3,4-dihydro-2H-benzo[1,4]oxazin-6-yloxy]-pyrrolidine-1-carbonyl}-1H-pyridin-2-one], the IC50 on PI3K delta came out at 68 nM; against PI3K alpha, 1520 nM.

With `CCC(=O)N1CC[C@H](Oc2ccc3c(c2)N(c2cnc(Cl)c(OC)c2)CCO3)C1` [Example B55, 1-{(S)-3-[4-(6-Chloro-5-methoxy-pyridin-3-yl)-3,4-dihydro-2H-benzo[1,4]oxazin-6-yloxy]-pyrrolidin-1-yl}-propan-1-one], the IC50 is 65 nM against PI3K delta and 3850 nM against PI3K alpha.

With `COCC(=O)N1CC[C@H](Oc2ccc3c(c2)N(c2cnc(OC)c(C#N)c2)CCO3)C1` [Example D12, 2-Methoxy-5-{6-[(S)-1-(2-methoxy-acetyl)-pyrrolidin-3-yloxy]-2,3-dihydro-benzo[1,4]oxazin-4-yl}-nicotinonitrile], the IC50 against PI3K delta is < 3 nM; on PI3K alpha it was 142 nM.

Regarding `Cc1cc(N2CCOc3ccc(O[C@H]4CCN(C(=O)C5CCOC5)C4)cc32)cnc1S(C)(=O)=O` (stereo partly drawn) [Example B52, {(S)-3-[4-(6-Methanesulfonyl-5-methyl-pyridin-3-yl)-3,4-dihydro-2H-benzo[1,4]oxazin-6-yloxy]-pyrrolidin-1-yl}-(tetrahydro-furan-3-yl)-methanone], the IC50 against PI3K delta was < 3 nM; against PI3K alpha, 556 nM.

As for `CCC(=O)N1CC[C@H](Oc2ccc3c(c2)N(c2cnc(Cl)c(C)c2)CCO3)C1` [Example B59, 1-{(S)-3-[4-(6-Chloro-5-methyl-pyridin-3-yl)-3,4-dihydro-2H-benzo[1,4]oxazin-6-yloxy]-pyrrolidin-1-yl}-propan-1-one], the IC50 was determined as 17 nM against PI3K delta and 461 nM on PI3K alpha.

For `COc1ncc(N2CCOc3ccc(O[C@H]4CCN(CC5CCN(C)CC5)C4)cc32)cc1C#N` [P, 2-Methoxy-5-{6-[(S)-1-(1-methyl-piperidin-4-ylmethyl)-pyrrolidin-3-yloxy]-2,3-dihydro-benzo[1,4]oxazin-4-yl}-nicotinonitrile], the IC50 came to 72 nM on PI3K delta and 954 nM against PI3K alpha.

For `CS(=O)(=O)c1ncc(N2CCOc3ccc(O[C@H]4CCN(C(=O)C5CCOCC5)C4)cc32)cc1C(F)F` [Example B70, {(S)-3-[4-(5-Difluoromethyl-6-methanesulfonyl-pyridin-3-yl)-3,4-dihydro-2H-benzo[1,4]oxazin-6-yloxy]-pyrrolidin-1-yl}-(tetrahydro-pyran-4-yl)-methanone], the IC50 was 3 nM against PI3K delta and 134 nM against PI3K alpha.

Turning to `Cc1cc(N2CCOc3ccc(O[C@H]4CCN(C(=O)C5CCCCC5)C4)cc32)cnc1S(C)(=O)=O` [Example B49, Cyclohexyl-{(S)-3-[4-(6-methanesulfonyl-5-methyl-pyridin-3-yl)-3,4-dihydro-2H-benzo[1,4]oxazin-6-yloxy]-pyrrolidin-1-yl}-methanone], the IC50 was 7 nM against PI3K delta and 450 nM against PI3K alpha.

Consider `COc1ncc(N2CCOc3ccc(O[C@H]4CCN(C(=O)[C@@H]5CCN(C)C5)C4)cc32)cc1C#N` [L, 2-Methoxy-5-{6-[(S)-1-((R)-1-methyl-pyrrolidine-3-carbonyl)-pyrrolidin-3-yloxy]-2,3-dihydro-benzo[1,4]oxazin-4-yl}-nicotinonitrile], for which the IC50 at PI3K delta stood at 13 nM; on PI3K alpha it was 538 nM.

Regarding `COCC(=O)N1CC[C@H](Oc2ccc3c(c2)N(c2cnc(OC)c(OC)c2)CCO3)C1` [Example B44, 1-{(S)-3-[4-(5,6-Dimethoxy-pyridin-3-yl)-3,4-dihydro-2H-benzo[1,4]oxazin-6-yloxy]-pyrrolidin-1-yl}-2-methoxy-ethanone], the results for the IC50 at PI3K delta and against PI3K alpha were 22 nM and 71 nM, respectively.

Consider `CCC(=O)N1CC[C@H](Oc2ccc3c(c2)N(c2ccc(S(C)(=O)=O)nc2)CCO3)C1` [Example A8, 1-{(S)-3-[4-(6-Methanesulfonyl-pyridin-3-yl)-3,4-dihydro-2H-benzo[1,4]oxazin-6-yloxy]-pyrrolidin-1-yl}-propan-1-one], for which the IC50 on PI3K delta was found to be 40 nM; at PI3K alpha it was 5930 nM.

In the case of `COc1ncc(N2CCOc3ccc(O[C@H]4CCN(C(=O)c5cn(C)cn5)C4)cc32)cc1N` [T, {(S)-3-[4-(5-Amino-6-methoxy-pyridin-3-yl)-3,4-dihydro-2H-benzo[1,4]oxazin-6-yloxy]-pyrrolidin-1-yl}-(1-methyl-1H-imidazol-4-yl)-methanone], the values for the IC50 at PI3K delta and on PI3K alpha were 76 nM and 1880 nM, respectively.

As for `Cc1cc(N2CCOc3ccc(O[C@H]4CCN(C(=O)C5CCS(=O)(=O)C5)C4)cc32)cnc1S(C)(=O)=O` (stereo partly drawn) [Example B35, (1,1-Dioxo-tetrahydro-1lambda*6*-thiophen-3-yl)-{(S)-3-[4-(6-methanesulfonyl-5-methyl-pyridin-3-yl)-3,4-dihydro-2H-benzo[1,4]oxazin-6-yloxy]-pyrrolidin-1-yl}-methanone], the IC50 is 27 nM against PI3K delta and 1390 nM against PI3K alpha.

As to `Cc1cc(N2CCOc3ccc(O[C@H]4CCN(C(=O)C5CCOCC5)C4)c(F)c32)cnc1S(C)(=O)=O` [Example I3], the IC50 was determined as 6 nM against PI3K delta and 836 nM against PI3K alpha.

In the case of `Cc1cc(N2CCOc3ccc(O[C@H]4CCN(C(=O)[C@H]5CC[C@H](O)CC5)C4)cc32)cnc1S(C)(=O)=O` [Example B50, (4-Hydroxy-cyclohexyl)-{(S)-3-[4-(6-methanesulfonyl-5-methyl-pyridin-3-yl)-3,4-dihydro-2H-benzo[1,4]oxazin-6-yloxy]-pyrrolidin-1-yl}-methanone], the IC50 at PI3K delta turned out to be 13 nM; against PI3K alpha, 933 nM.

As for `Cc1cc(N2CCOc3ccc(O[C@H]4CCN(C(=O)C5CCS(=O)(=O)C5)C4)cc32)cnc1S(C)(=O)=O` (stereo partly shown) [Example H2], the IC50 turned out to be 13 nM at PI3K delta and 913 nM at PI3K alpha.

Turning to `Cc1cc(N2CCOc3ccc(O[C@H]4CCN(c5ccccn5)C4)cc32)cnc1S(C)(=O)=O` [M, 4-(6-Methanesulfonyl-5-methyl-pyridin-3-yl)-6-((S)-1-pyridin-2-yl-pyrrolidin-3-yloxy)-3,4-dihydro-2H-benzo[1,4]oxazine], the concentration for half-maximal inhibition (IC50) was found to be 6 nM at PI3K delta and 304 nM at PI3K alpha.

`COc1ncc(N2CCOc3ccc(O[C@H]4CCN(C(=O)c5cn(C)cn5)C4)cc32)cc1NS(C)(=O)=O` [U, N-(2-Methoxy-5-{6-[(S)-1-(1-methyl-1H-imidazole-4-carbonyl)-pyrrolidin-3-yloxy]-2,3-dihydro-benzo[1,4]oxazin-4-yl}-pyridin-3-yl)-methanesulfonamide]: the IC50 at PI3K delta turned out to be 15 nM; at PI3K alpha it was 192 nM.

For `COc1ncc(N2CCOc3ccc(O[C@H]4CCN(C(=O)CCO)C4)cc32)cc1Cl` [Example B107, 1-{(S)-3-[4-(5-Chloro-6-methoxy-pyridin-3-yl)-3,4-dihydro-2H-benzo[1,4]oxazin-6-yloxy]-pyrrolidin-1-yl}-3-hydroxy-propan-1-one], the results for the IC50 on PI3K delta and against PI3K alpha were 4 nM and 239 nM, respectively.

Turning to `CS(=O)(=O)c1ncc(N2CCOc3ccc(O[C@H]4CCN(C(=O)C5CCOCC5)C4)cc32)cc1Cl` [Example B79, {(S)-3-[4-(5-Chloro-6-methanesulfonyl-pyridin-3-yl)-3,4-dihydro-2H-benzo[1,4]oxazin-6-yloxy]-pyrrolidin-1-yl}-(tetrahydro-pyran-4-yl)-methanone], the IC50 at PI3K delta amounted to 3 nM; on PI3K alpha it was 661 nM.

One may read the IC50 as the concentration that inhibits the measured activity by half.
